Consider 13 compounds from patent US10385069B2, “Imidazo[2,1-B]thiazole and 5,6-dihydroimidazo[2,1-B]thiazole derivatives useful as S100-inhibitors” (Active Biotech AB, priority 2015, dated 2019).

For this test, the target named is T1, interaction between biotinylated human S100A9 and human RAGE-Fc (Homo sapiens, UniProt P06702).
T1 construct: made in house; host or cells: E. coli
T1 sequence (P06702 1-114): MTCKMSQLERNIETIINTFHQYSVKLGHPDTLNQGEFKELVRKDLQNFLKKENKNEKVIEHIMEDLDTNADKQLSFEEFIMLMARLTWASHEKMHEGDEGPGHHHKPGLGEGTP
As to the kind of experiment: AlphaScreen inhibition assay, biot-hS100A9:hRAGE-Fc. The note with it: biot-hS100A9 pre-incubated with compound 1 h, assay buffer with CaCl2 and ZnCl2. The class given is binding. The method, boiled down: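 Biotinylated human S100A9, preincubated with compound, binds human RAGE-Fc on protein A Acceptor beads in HBS-P with CaCl2 and ZnCl2; streptavidin Donor beads added, AlphaScreen signal read. Protein levels set by cross-titration; beads 20 μg/mL final. Percent inhibition versus DMSO control; IC50 from varied compound concentrations.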
(Alpha assays give light when donor and acceptor beads are brought close together.)

Turning to `CC1(C)Cc2c(sc3nc(C(=O)O)c(C4CN(C(=O)OC(C)(C)C)C4)n23)C(C)(C)C1` [Example 225, 3-{1-[(tert-Butoxy)carbonyl]azetidin-3-yl}-9,9,11,11-tetramethyl-7-thia-2,5-diazatricyclo[6.4.0.0^2,6]dodeca-1(8),3,5-triene-4-carboxylic acid], the IC50 amounted to 310 nM. As to `O=C(O)C1CN2C(=N1)Sc1c2ccc(F)c1Cl` (stereo not shown) [Example 228, 9-Chloro-10-fluoro-7-thia-2,5-diazatricyclo[6.4.0.0^2,6]dodeca-1(8),5,9,11-tetraene-4-carboxylic acid], the half-inhibitory concentration (IC50) is 260 nM. With `C#Cc1c(C(=O)O)nc2sc3c(n12)CC(C)(C)CC3(C)C` [Example 229, 3-Ethynyl-9,9,11,11-tetramethyl-7-thia-2,5-diazatricyclo[6.4.0.0^2,6]dodeca-1(8),3,5-triene-4-carboxylic acid] the figure was 740 nM; with `O=C(O)c1cn2c(n1)sc1cc(Cl)c(OC(F)(F)F)cc12` [Example 230, 10-Chloro-11-(trifluoromethoxy)-7-thia-2,5-diazatricyclo[6.4.0.0^2,6]dodeca-1(8),3,5,9,11-pentaene-4-carboxylic acid], 980 nM; with `CS(=O)(=O)Nc1c(C(=O)O)nc2sc3c(Cl)c(F)ccc3n12` [Example 232, 9-Chloro-10-fluoro-3-methanesulfonamido-7-thia-2,5-diazatricyclo[6.4.0.0^2,6]dodeca-1(8),3,5,9,11-pentaene-4-carboxylic acid], 200 nM. With `CC1(C)Cc2c(sc3nc(C(=O)O)c(N4CCOCC4)n23)C(C)(C)C1` [Example 233, 9,9,11,11-Tetramethyl-3-(morpholin-4-yl)-7-thia-2,5-diazatricyclo[6.4.0.0^2,6]dodeca-1(8),3,5-triene-4-carboxylic acid] the figure was 430 nM; with `Cc1c(C(=O)O)nc2sc3c(Cl)c(F)ccc3n12` [Example 234, 9-Chloro-10-fluoro-3-methyl-7-thia-2,5-diazatricyclo[6.4.0.0^2,6]dodeca-1(8),3,5,9,11-pentaene-4-carboxylic acid], 90 nM. Next, `CC1(C)Cc2c(sc3nc(C(=O)O)c(C4CNC4)n23)C(C)(C)C1` [Example 235, 3-(Azetidin-3-yl)-9,9,11,11-tetramethyl-7-thia-2,5-diazatricyclo[6.4.0.0^2,6]dodeca-1(8),3,5-triene-4-carboxylic acid]: 1680 nM. For the compound `O=C(O)c1nc2sc3c(Cl)c(F)ccc3n2c1N1CCOCC1` [Example 238, 9-Chloro-10-fluoro-3-(morpholin-4-yl)-7-thia-2,5-diazatricyclo[6.4.0.0^2,6]dodeca-1(8),3,5,9,11-pentaene-4-carboxylic acid], the IC50 was determined as 200 nM.

In the case of `O=C(O)C1CN2C(=N1)Sc1c2ccc(Br)c1Cl` (stereo not shown) [Example 240, 10-Bromo-9-chloro-7-thia-2,5-diazatricyclo[6.4.0.0^2,6]dodeca-1(8),5,9,11-tetraene-4-carboxylic acid], the IC50 amounted to 430 nM. With `O=C(O)c1cn2c(n1)sc1c(Cl)c(Cl)cc(OCCN3CCOCC3)c12` [Example 241, 9,10-Dichloro-12-[2-(morpholin-4-yl)ethoxy]-7-thia-2,5-diazatricyclo[6.4.0.0^2,6]dodeca-1(8),3,5,9,11-pentaene-4-carboxylic acid] the figure was 690 nM; with `CC(C)(C)C1CCc2c(sc3nc(C(=O)O)c(CN4CCOCC4)n23)C1` (stereo not shown) [Example 242, 10-tert-Butyl-3-(morpholin-4-ylmethyl)-7-thia-2,5-diazatricyclo[6.4.0.0^2,6]dodeca-1(8),3,5-triene-4-carboxylic acid], 1390 nM; with `O=C(O)c1cn2c(n1)sc1c(Cl)c(Br)ccc12` [Example 243, 10-Bromo-9-chloro-7-thia-2,5-diazatricyclo[6.4.0.0^2,6]dodeca-1(8),3,5,9,11-pentaene-4-carboxylic acid], 210 nM.

The term IC50 denotes the concentration at which inhibition is half-maximal.
